In data set [1] the test system is HIV-1. Put plainly: Live-cell fluorescence imaging of cell-to-cell transmission of HIV-1, pre-treated H9 cells co-cultured with GFP-MT2 target cells. In kind it is cell-based, Human immunodeficiency virus type 1 (HIV-1). The settings on record: FIG. 4C-3; for cell-to-cell spread of HIV-1, VS and syncytia formation: H9 cells pre-treated 3 hours (CCCP 10 μM, antimycin A 2.4 μM, oligomycin 2.4 μM), washed, co-cultured with GFP-MT2. How it is done: (§1) HIV-1 infected H9 cells were fluorescently labeled with MitoTracker Red CMXRos to stain mitochondria red, and with Hoechst 33342 to stain DNA blue according to the manufacturer's protocols (Molecular Probes). Uninfected MT2 target cells were labeled green by the expression of green fluorescent protein (GFP-MT2). Cells were co-cultured and imaged on a glass bottom 96-well plate (MatTek, Ashland, Mass.) in RPMI 1640 medium containing 10% heat-inactivated fetal calf serum, 2 mM L-glutamine, 100 U/ml penicillin and 100 μg/ml streptomycin (complete medium). Labeled HIV-1 infected H9 cells were washed 3 times with complete medium to remove any residual free virus and free dye. Washed cells were suspended in complete medium at a density of 5×10^5 cells/ml. 100 μl of this cell suspension, containing 50,000 cells, were plated into each well. 100,000 GFP-MT2 target cells in 100 μl were then added to each well, to give a ratio of 1:2 of infected to uninfected target cells.
Live-cell real-time images and time lapse movies were collected at 37° C., 5% CO2 using a microplate incubator, with precision temperature, humidity and CO2 controls, mounted on the microscope stage of a Leica inverted microscope equipped with an automatic power stage and an AF6000 camera. Phase contrast, blue (Hoechst 33342), green (GFP), and red (MitoTracker) channels were used for imaging. Images were collected at 0.5 min or 5 min intervals for 18-24 hours. Image analysis was performed using LCSAF software.

The test system of the next data set is HIV-1 infected H9 cells. Put plainly: Cell death of HIV-1 infected H9 cells on pre-treatment with mitochondrial inhibitors. The conditions noted are these: pre-treatment for 3 hours; CCCP 10 μM, antimycin A 2.4 μM, oligomycin 2.4 μM.
Data set [2] has as its system human pancreatic cancer PANC-1 cells. The conditions noted are these: glucose-deprived conditions; cited from earlier work.
In the next data set the test system is HIV-1 core protein p24. Put plainly: HIV-1 p24 assay (ELISA) in co-culture supernatants. The format is cell-based, Human immunodeficiency virus type 1 (HIV-1). The settings on record: HIV-infected H9 cells treated with CCCP, co-cultured with MT2 target cells; supernatant. How it is done:
as §1, with “cells. […]” for “cells.”
(§2) For quantitation of syncytial formation and HIV p24 production, data are means±standard deviations of four independent experiments. […]
(§3) To confirm that mitochondria from HIV infected cells serve as viral reservoirs and carry the virus into the uninfected target cells, the present inventors quantitated viral infection and replication in the co-cultures by syncytia formation and viral antigen p24 production. […]

For data set [3], the system named is HIV-1. Put plainly: Syncytia formation assay in co-cultures of HIV-1 infected H9 cells with MT2 target cells. The format is cell-based, Human immunodeficiency virus type 1 (HIV-1). The settings on record: Human immunodeficiency virus 1, H9, 3 h, HIV-infected H9 cells treated with 10 μM CCCP for 3 hours, then co-cultured with MT2 target cells. How it is done: as §1, with “100 μl of this cell suspension, containing 50,000 cells, were plated into each well. 100,000 GFP-MT2 target cells in 100 μl were then added to each well, to give a ratio of 1:2 of infected to uninfected target cells.” left out
Acute HIV infection of the target cells as a result of cell-to-cell transmission of the virus was measured by syncytia formation assay. Focal syncytium formation was scored under an inverted microscope.
as §2, §3

Entries after “also recorded” stand apart in the source; their conditions may differ.

Broadly, the inhibition is the share of the control response that was lost under treatment. Low values mean little suppression, high ones strong suppression.

For `CC[C@H]1/C=C/C=C/C[C@@H](C)[C@H](O)[C@@](C)(O)C(=O)[C@@H](C)[C@H](O)[C@@H](C)C(=O)[C@@H](C)[C@H](O)[C@@H](C)/C=C/C(=O)O[C@@H]2[C@H](C)[C@H](CC1)O[C@]1(CC[C@H](C)[C@H](C[C@@H](C)O)O1)[C@H]2C` [oligomycin], the “cell-to-cell spread of HIV-1, VS and syncytia formation” value with HIV-1 [1] was “reduced cell-to-cell spread of HIV-1 and decreased VS and syncytia formation”. Besides, the cell death result in the data set on HIV-1 infected H9 cells is listed as “no cell death”.

With efrapeptin F, the cytotoxicity result in data set [2] was “preferential cytotoxicity”.

In the case of antimycin A, the “cell-to-cell spread of HIV-1, VS and syncytia formation” value in the data set on HIV-1 [1] is “reduced cell-to-cell spread of HIV-1 and decreased VS and syncytia formation”. Further, the cell death entry in the data set on HIV-1 infected H9 cells is listed as “no cell death”.

For `N#CC(C#N)=NNc1cccc(Cl)c1` [CCCP, carbonyl cyanide m-chlorophenylhydrazone], the “syncytia formation in fluorescent images” value in the data set on HIV-1 [1] (CCCP-treated HIV-1 infected H9 cells co-cultured with GFP-MT2 target cells) is listed as “inhibits syncytia formation; also recorded: blocked syncytia formation”. Moreover, the “cell-to-cell spread of HIV-1, VS and syncytia formation” value in the data set on HIV-1 [1] was “reduced cell-to-cell spread of HIV-1 and decreased VS and syncytia formation”. In the data set on HIV-1 core protein p24, the “reduction of p24 expression” value is “about 95%”. Further, in the data set on HIV-1 infected H9 cells, the cell death result is given as “no cell death”. In the data set with HIV-1 [3], the inhibition at 10 µM was approximately 95%.

Values taken from US8911935B2, “Mitochondria and human immunodefiency virus type 1” (New York University, priority 2011, dated 2014).
